Results reported in patent US8969516B2, “Method of hydrolysis of peptide bond” (priority 2006, dated 2015).

Assay: MALDI-TOF screening of Ni^2+ dependent hydrolysis in a combinatorial peptide library
Assay type: physicochemical
Details: CH3CO-Gly-Ala-Thr-X-His-Z-Lys-Phe-Leu-NH2 library, Ni^2+ 2 mM, pH 8.2, 10 mM Tris, score=24/tm
Outline: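 Sublibraries of Ac-Gly-Ala-Ser/Thr-X-His-Z-Lys-Phe-Leu-NH2, randomized at Z and fixed at X, were hydrolyzed at 1 mM total peptide with 2 mM Ni2+ in 10 mM Tris, pH 8.2, at 37 °C or 45 °C. Cleavage was scored visually in MALDI-TOF spectra at 2, 4, 6 and 8 h.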

| Substance | hydrolysis score from MALDI-TOF screening (37° C.) | hydrolysis score from MALDI-TOF screening (45° C.) |
| --- | --- | --- |
| Ac-GATAHPKFL-NH2 [TAHP] | 0 (a score of 0 if no trace of the product of hydrolysis was seen after 8 hours of incubation) | 0 (a score of 0 if no trace of the product of hydrolysis was seen after 8 hours of incubation) |
| Ac-GATAHQKFL-NH2 [TAHQ] | 0 (a score of 0 if no trace of the product of hydrolysis was seen after 8 hours of incubation) | 0 (a score of 0 if no trace of the product of hydrolysis was seen after 8 hours of incubation) |
| Ac-GATAHRKFL-NH2 [TAHR] | 0 (a score of 0 if no trace of the product of hydrolysis was seen after 8 hours of incubation) | 0 (a score of 0 if no trace of the product of hydrolysis was seen after 8 hours of incubation) |
| Ac-GATAHSKFL-NH2 [TAHS] | 0 (a score of 0 if no trace of the product of hydrolysis was seen after 8 hours of incubation) | 0 (a score of 0 if no trace of the product of hydrolysis was seen after 8 hours of incubation) |
| Ac-GATAHTKFL-NH2 [TAHT] | 0 (a score of 0 if no trace of the product of hydrolysis was seen after 8 hours of incubation) | 0 (a score of 0 if no trace of the product of hydrolysis was seen after 8 hours of incubation) |
| Ac-GATAHVKFL-NH2 [TAHV] | 0 (a score of 0 if no trace of the product of hydrolysis was seen after 8 hours of incubation) | 0 (a score of 0 if no trace of the product of hydrolysis was seen after 8 hours of incubation) |
| Ac-GATAHYKFL-NH2 [TAHY] | 0 (a score of 0 if no trace of the product of hydrolysis was seen after 8 hours of incubation) | 0 (a score of 0 if no trace of the product of hydrolysis was seen after 8 hours of incubation) |
| Ac-GATFHAKFL-NH2 [TFHA] | 0 (a score of 0 if no trace of the product of hydrolysis was seen after 8 hours of incubation) | 0 (a score of 0 if no trace of the product of hydrolysis was seen after 8 hours of incubation) |
| Ac-GATFHDKFL-NH2 [TFHD] | 0 (a score of 0 if no trace of the product of hydrolysis was seen after 8 hours of incubation) | 0 (a score of 0 if no trace of the product of hydrolysis was seen after 8 hours of incubation) |
| Ac-GATFHEKFL-NH2 [TFHE] | 0 (a score of 0 if no trace of the product of hydrolysis was seen after 8 hours of incubation) | 0 (a score of 0 if no trace of the product of hydrolysis was seen after 8 hours of incubation) |
| Ac-GATFHFKFL-NH2 [TFHF] | 0 (a score of 0 if no trace of the product of hydrolysis was seen after 8 hours of incubation) | 0 (a score of 0 if no trace of the product of hydrolysis was seen after 8 hours of incubation) |
| Ac-GATFHGKFL-NH2 [TFHG] | 0 (a score of 0 if no trace of the product of hydrolysis was seen after 8 hours of incubation) | 0 (a score of 0 if no trace of the product of hydrolysis was seen after 8 hours of incubation) |
| Ac-GATFHHKFL-NH2 [TFHH] | 0 (a score of 0 if no trace of the product of hydrolysis was seen after 8 hours of incubation) | 0 (a score of 0 if no trace of the product of hydrolysis was seen after 8 hours of incubation) |
| Ac-GATFHKKFL-NH2 [TFHK] | 3 (a score of 3 for detection at 8 hours) | 3 (a score of 3 for detection at 8 hours) |
| Ac-GATFHLKFL-NH2 [TFHL] | 0 (a score of 0 if no trace of the product of hydrolysis was seen after 8 hours of incubation) | 0 (a score of 0 if no trace of the product of hydrolysis was seen after 8 hours of incubation) |
| Ac-GATFHMKFL-NH2 [TFHM] | 0 (a score of 0 if no trace of the product of hydrolysis was seen after 8 hours of incubation) | 0 (a score of 0 if no trace of the product of hydrolysis was seen after 8 hours of incubation) |
| Ac-GATFHNKFL-NH2 [TFHN] | 0 (a score of 0 if no trace of the product of hydrolysis was seen after 8 hours of incubation) | 0 (a score of 0 if no trace of the product of hydrolysis was seen after 8 hours of incubation) |
| Ac-GATFHPKFL-NH2 [TFHP] | 0 (a score of 0 if no trace of the product of hydrolysis was seen after 8 hours of incubation) | 0 (a score of 0 if no trace of the product of hydrolysis was seen after 8 hours of incubation) |
| Ac-GATFHQKFL-NH2 [TFHQ] | 0 (a score of 0 if no trace of the product of hydrolysis was seen after 8 hours of incubation) | 0 (a score of 0 if no trace of the product of hydrolysis was seen after 8 hours of incubation) |

| Substance | hydrolysis score from MALDI-TOF screening (37° C.) | hydrolysis score from MALDI-TOF screening (45° C.) |
| --- | --- | --- |
| Ac-GATFHRKFL-NH2 [TFHR] | 3 (a score of 3 for detection at 8 hours) | 4 (a score of 4 for detection at 6 hours) |
| Ac-GATFHSKFL-NH2 [TFHS] | 0 (a score of 0 if no trace of the product of hydrolysis was seen after 8 hours of incubation) | 0 (a score of 0 if no trace of the product of hydrolysis was seen after 8 hours of incubation) |
| Ac-GATFHTKFL-NH2 [TFHT] | 0 (a score of 0 if no trace of the product of hydrolysis was seen after 8 hours of incubation) | 0 (a score of 0 if no trace of the product of hydrolysis was seen after 8 hours of incubation) |
| Ac-GATFHVKFL-NH2 [TFHV] | 0 (a score of 0 if no trace of the product of hydrolysis was seen after 8 hours of incubation) | 0 (a score of 0 if no trace of the product of hydrolysis was seen after 8 hours of incubation) |
| Ac-GATFHYKFL-NH2 [TFHY] | 0 (a score of 0 if no trace of the product of hydrolysis was seen after 8 hours of incubation) | 0 (a score of 0 if no trace of the product of hydrolysis was seen after 8 hours of incubation) |
| Ac-GATGHAKFL-NH2 [TGHA] | 0 (a score of 0 if no trace of the product of hydrolysis was seen after 8 hours of incubation) | 0 (a score of 0 if no trace of the product of hydrolysis was seen after 8 hours of incubation) |
| Ac-GATGHDKFL-NH2 [TGHD] | 0 (a score of 0 if no trace of the product of hydrolysis was seen after 8 hours of incubation) | 0 (a score of 0 if no trace of the product of hydrolysis was seen after 8 hours of incubation) |
| Ac-GATGHEKFL-NH2 [TGHE] | 0 (a score of 0 if no trace of the product of hydrolysis was seen after 8 hours of incubation) | 0 (a score of 0 if no trace of the product of hydrolysis was seen after 8 hours of incubation) |
| Ac-GATGHGKFL-NH2 [TGHG] | 0 (a score of 0 if no trace of the product of hydrolysis was seen after 8 hours of incubation) | 0 (a score of 0 if no trace of the product of hydrolysis was seen after 8 hours of incubation) |
| Ac-GATGHHKFL-NH2 [TGHH] | 0 (a score of 0 if no trace of the product of hydrolysis was seen after 8 hours of incubation) | 0 (a score of 0 if no trace of the product of hydrolysis was seen after 8 hours of incubation) |
| Ac-GATGHIKFL-NH2 [TGHI] | 0 (a score of 0 if no trace of the product of hydrolysis was seen after 8 hours of incubation) | 0 (a score of 0 if no trace of the product of hydrolysis was seen after 8 hours of incubation) |
| Ac-GATGHKKFL-NH2 [TGHK] | 0 (a score of 0 if no trace of the product of hydrolysis was seen after 8 hours of incubation) | 0 (a score of 0 if no trace of the product of hydrolysis was seen after 8 hours of incubation) |
| Ac-GATGHLKFL-NH2 [TGHL] | 0 (a score of 0 if no trace of the product of hydrolysis was seen after 8 hours of incubation) | 0 (a score of 0 if no trace of the product of hydrolysis was seen after 8 hours of incubation) |
| Ac-GATGHMKFL-NH2 [TGHM] | 0 (a score of 0 if no trace of the product of hydrolysis was seen after 8 hours of incubation) | 0 (a score of 0 if no trace of the product of hydrolysis was seen after 8 hours of incubation) |
| Ac-GATGHNKFL-NH2 [TGHN] | 0 (a score of 0 if no trace of the product of hydrolysis was seen after 8 hours of incubation) | 0 (a score of 0 if no trace of the product of hydrolysis was seen after 8 hours of incubation) |
| Ac-GATGHPKFL-NH2 [TGHP] | 0 (a score of 0 if no trace of the product of hydrolysis was seen after 8 hours of incubation) | 0 (a score of 0 if no trace of the product of hydrolysis was seen after 8 hours of incubation) |
| Ac-GATGHQKFL-NH2 [TGHQ] | 0 (a score of 0 if no trace of the product of hydrolysis was seen after 8 hours of incubation) | 0 (a score of 0 if no trace of the product of hydrolysis was seen after 8 hours of incubation) |
| Ac-GATGHRKFL-NH2 [TGHR] | 0 (a score of 0 if no trace of the product of hydrolysis was seen after 8 hours of incubation) | 0 (a score of 0 if no trace of the product of hydrolysis was seen after 8 hours of incubation) |
